# In publication PMC13095408, “DBeQ derivative targets vacuolar protein sorting 4 functions in cancer cells and suppresses tumor growth in mice” (The Journal of Pharmacology and Experimental Therapeutics, 2025):
# Assay: Acute dose MTD study
# Conditions: both sexes, C57BL/6J, mouse, in vivo, ip, fixed daily doses 5, 10, 15, 20 mg/kg, B6 mice; read-out: acute dose MTD (tolerated dose)
# Description: All animal studies were performed in accordance with the guidelines of the Institutional Animal Care and Use Committee at the Penn State College of Medicine (IACUC # PRAMS201145989). To determine the maximum tolerated dose (MTD) of 4-107, escalating and acute dose studies were performed. The escalating MTD study used an intra-animal design where each mouse received daily doses of 4-107 that increased 50% each day from a starting dose of 5 mg/kg. Six female C57BL/6J (B6) (The Jackson Laboratory; 000664) were administered 4-107 either orally via oral gavage or via intraperitoneal injection with 3 mice per group. The acute MTD study had groups of mice receive daily consistent doses of 4-107 i.p. Here, B6 mice were administered 4-107 at either 5 (n = 4; 2 males [M], 2 females [F]), 10 (n = 4; 2 M, 2 F), 15 (n = 5; all M), or 20 mg/kg (n = 5; all M). In both studies, 4-107 dissolved in DMSO was mixed into 30% propylene glycol, 5% Tween 80, and 65% of 5% dextrose in water (PTD [vehicle]) with a final DMSO concentration of ≤ 3%. […] BCS was determined by posture and prominence of skeletal features upon visual inspection and palpation, where BCS < 2 indicated a hunched posture and emaciation. […] The MTD was determined as the highest dose of 4-107 administered without mice reaching the toxicity endpoints.
structure (smiles),measurement,value
"COc1cccc2c(NCc3ccccc3)nc(NCc3ccccc3)nc12 [Compound 4-107, N^2,N^4-dibenzyl-8-methoxyquinazoline-2,4-diamine]",MTD,5 mg/kg
